# Data taken from patent publication US5545638A, “Method of treating gastrointestinal motility disorders” (Novo Nordisk A/S, priority 1995, dated 1996).
# Structures can show the parent of a compound that is named as a salt.
# Target: muscarinic receptors
# Assay: Inhibition of ^3 H-oxotremorine-M binding to muscarinic receptors
# Parameters: species or system rat (male Sprague-Dawley, cerebral cortex)
# Settings: 3 nM ^3 H-oxotremorine-M, rat cerebral cortical membranes, 15 min, 25° C., pH 7.4; concentration to inhibit specific binding 50%; read-out: Inhibition of ^3 H-Oxo
# Experimental: The affinity of the compounds for the muscarinic receptors was determined using the non-selective agonist ligand, ^3 H-oxotremorine-M. Birdsdall N. J. M., Hulme E. C., and Burgen A. S. V., "The Character of Muscarinic Receptors in Different Regions of the Rat Brain", 207 Proc. Roy. Soc. 1 (London, Series B, 1980). Each compound was tested to determine the affinity of the compound for the muscarinic receptors using the following procedure.
# For each in vitro binding, male Sprague-Dawley (Harlan Sprague-Dawley, Indianapolis, Ind.) rats weighing from about 100 to about 150 grams each were sacrificed by decapitation. The brains were quickly removed and the cerebral cortex were dissected from the brain. The cerebral cortex tissue was homogenized in 10 volumes of 0.32M sucrose and homogenized for about 10 minutes at about 1000×g. […]
# The aforementioned homogenates mixture was incubated for about 15 minutes at about 25° C. and then the homogenates were filtered through glass filters (Whatman, GF/C) with vacuum. The filters were washed 3 times with about 2 ml of cold tris-Cl buffer, and placed in scintillation vials containing about 10 ml of scintillation fluid (Ready Protein+, Beckman, Fullerton, Calif.). Radioactivity trapped on the filters was determined by liquid scintillation spectrometry. Nonspecific binding was determined using 1 μM atropine. […]
smiles,measurement,value
"C=CCCCCOc1nsnc1C1=CCCN(C)C1 [Compound 33, 3-(3-(5-Hexenyloxy)-1,2,5-thiadiazol-4-yl)-1,2,5,6-tetrahydro-1-methylpyridine oxalate]",IC50,2.7 nM
